US10517889B2, “Modulators of SMAD7 expression” (Ionis Pharmaceuticals, Inc., priority 2017, dated 2019)
Strand notation (5' to 3'): a small letter for the sugar, then the base; units joined by * are phosphorothioate-linked, units joined directly phosphodiester-linked; [ ] holds rarer units or linkages, { } end groups; capitals alone tell only the bases. e = 2'-O-(2-methoxyethyl) (MOE); [5mC] = 5-methylcytosine; d = 2'-deoxy (DNA)

Tested on: human SMAD7 mRNA
Assay: Antisense inhibition of human SMAD7 mRNA expression in Hep3B cells by 5-10-5 MOE gapmers, single concentration, electroporation, RT-PCR (Example 1, Study 1 and 2)
Format: cell-based
Conditions: for % Inhibition: Study 2, electroporation with 15,000 nM antisense oligonucleotide
How it was run: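 Readout is percent SMAD7 mRNA inhibition versus untreated cells, measured by qRT-PCR (RTS5062) and corrected for total RNA by RIBOGREEN. Oligonucleotide, 5,000 nM or 15,000 nM, was delivered by electroporation into Hep3B cells at 20,000 per well. RNA was collected about 24 h later.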

[1] = 5-10-5 MOE gapmers targeting SEQ ID NO: 1 and 2
[2] = electroporation, 15,000 nM antisense oligonucleotide (Study 2), 5-10-5 MOE gapmers targeting SEQ ID NO: 1 and 2
[3] = electroporation with 15,000 nM antisense oligonucleotide (Study 2), 5-10-5 MOE gapmers targeting SEQ ID NO: 1 and 2

Row | Substance | % Inhibition [1] [%] | % inhibition of SMAD7 mRNA expression [2] [%] | also measured
1 | 771350 (antisense eT*eT*eT*eG*e[5mC]*d[5mC]*d[5mC]*d[5mC]*dA*dA*dA*dA*d[5mC]*dT*d[5mC]*e[5mC]*eA*eA*eA*eG) [compound 771350] | 28 |  | % inhibition of SMAD7 mRNA expression (electroporation, 5,000 nM, approximately 24 hours, relative to untreated control cells, gapmers targeting SEQ ID NO: 1 and 2): 68%
2 | 771593 (antisense e[5mC]*eG*e[5mC]*eT*eG*d[5mC]*dT*d[5mC]*dA*dG*dA*dA*dG*d[5mC]*d[5mC]*eT*eG*eT*eG*eG) [compound 771593] |  | 41 | 
3 | 771640 (antisense eG*eG*eT*eG*eT*d[5mC]*dA*dG*d[5mC]*d[5mC]*dT*dA*dG*dG*dA*eT*eG*eG*eT*eA) [compound 771640] |  |  | % Inhibition of SMAD7 mRNA [3]: 35%; % inhibition of SMAD7 mRNA expression [3]: 0%
4 | 771903 (antisense eT*eG*e[5mC]*e[5mC]*eA*dA*d[5mC]*d[5mC]*d[5mC]*d[5mC]*dA*dG*dA*dG*dG*eT*eG*eA*eG*e[5mC]) [compound 771903] | 20 |  | 
5 | 771621 (antisense eA*e[5mC]*eA*e[5mC]*eA*d[5mC]*dA*dG*dG*dA*dT*dG*dG*dG*dA*eG*e[5mC]*eA*eG*eG) [compound 771621] |  |  | % inhibition of SMAD7 mRNA expression (electroporation, 15,000 nM, approximately 24 hours, relative to untreated control cells, gapmers targeting SEQ ID NO: 1 and 2): 36%
6 | 771942 (antisense eG*eT*e[5mC]*eG*eG*dT*d[5mC]*dA*dG*dG*dG*d[5mC]*d[5mC]*dT*dT*eG*e[5mC]*e[5mC]*e[5mC]*eT) [compound 771942] | 11 |  | 
7 | 771356 (antisense eT*e[5mC]*e[5mC]*eA*eG*dT*dT*d[5mC]*dG*dG*d[5mC]*d[5mC]*dT*dT*d[5mC]*e[5mC]*eA*eT*e[5mC]*e[5mC]) [compound 771356] |  |  | % inhibition of SMAD7 mRNA expression (electroporation, 15,000 nM, approximately 24 hours, gapmers targeting SEQ ID NO: 3 and 4): 40%
8 | 771718 (antisense eA*eA*eA*eG*eT*dT*d[5mC]*dT*dA*dG*dT*dG*dT*d[5mC]*dT*eA*e[5mC]*eT*e[5mC]*e[5mC]) [compound 771718] | 29 |  | 
9 | 771832 (antisense eA*e[5mC]*e[5mC]*eT*eT*dT*d[5mC]*dA*d[5mC]*dG*dA*dA*d[5mC]*d[5mC]*dA*e[5mC]*eT*eT*eT*eT) [compound 771832] |  | 11 | % Inhibition of SMAD7 mRNA [3]: 31%
10 | 771926 (antisense eA*e[5mC]*eA*eA*eA*dG*dG*dT*d[5mC]*dT*dG*dT*dG*dT*dG*eG*eA*e[5mC]*eG*e[5mC]) [compound 771926] | 13 |  | 
11 | 771609 (antisense eA*eT*eG*eT*e[5mC]*dA*d[5mC]*d[5mC]*dA*dG*dG*dG*d[5mC]*dA*dG*eG*e[5mC]*eA*eG*eG) [compound 771609] |  |  | % inhibition of SMAD7 mRNA expression [3]: 47%
12 | 771578 (antisense e[5mC]*eT*eG*e[5mC]*e[5mC]*dT*d[5mC]*dT*dG*d[5mC]*d[5mC]*d[5mC]*d[5mC]*dA*d[5mC]*eT*eG*eA*eG*e[5mC]) [compound 771578] |  | 50 | 
13 | 771380 (antisense eA*e[5mC]*e[5mC]*eA*eA*dG*dA*dT*d[5mC]*d[5mC]*dA*dT*d[5mC]*dT*dT*eT*eA*eA*eG*e[5mC]) [compound 771380] |  | 0 | 
14 | 771617 (antisense e[5mC]*eA*eG*eT*eG*d[5mC]*dT*dG*dA*dG*d[5mC]*dT*dG*dG*dT*eT*eT*eT*e[5mC]*eT) [compound 771617] |  |  | % inhibition of SMAD7 mRNA expression [3]: 10%
15 | 771848 (antisense e[5mC]*e[5mC]*eA*e[5mC]*eA*d[5mC]*dA*dA*d[5mC]*d[5mC]*dA*dA*dA*dG*d[5mC]*eA*eG*eA*eA*eG) [compound 771848] |  | 36 | % Inhibition of SMAD7 mRNA [3]: 47%
16 | 771482 (antisense e[5mC]*e[5mC]*eG*e[5mC]*eT*dG*d[5mC]*dA*dG*dG*d[5mC]*dT*dG*dT*dA*e[5mC]*eG*e[5mC]*e[5mC]*eT) [compound 771482] |  | 38 | 
